The test system of series [1] is PGC-1α expression in C2C12 cells. The series is described as follows: In vitro PGC-1α expression in C2C12 cells (cell ELISA). Type of series: cell-based. To be noted: 5000 cells/well, OD @ 650 nm, DMSO control = 100. The protocol:
Culture conditions: DMEM containing 25 mM glucose with 10% FBS supplementation; grown at 37° C. and 5% CO2.
Drugs: (+)-Epicatechin, AICAR (direct activator of AMPK).
Assay Conditions: C2C12 cells were cultured in DMEM supplemented in 10% FBS upto 80% confluence. The cells were further trypsinized and seeded into a 96 well plate at a density of 5000 cells/well (well volume—100 μL) (Day 0). Following attachment, the cells were allowed to reach 80-90% confluence in the plate (typically 48 hours post seeding) and further differentiated using DMEM+2% Horse Serum (200 μL/well). The media was changed every day or at least every alternate day for 5 days to allow myoblasts to differentiate into myotubes. On day 7 (post seeding), the cells were treated with standards and test compounds for PGC-1 α assay.
PGC-1α assay: For the detection of PGC-1a, the cells were incubated with 0.5 μg/ml primary antibody (Merck, WH0010891M3) in PBS-T containing 5% BSA at 4° C. overnight. The cells were then washed three times with PBS-T for 5 minutes and incubated with 1:1000 dilution secondary antibody (Anti-rabbit IgG, HRP-linked Antibody, Cell Signaling) in PBS-T with 1% BSA for 1 hour at RT. Cells were washed three times with PBS-T for 5 minutes The cells were incubated with 100 μl TMB substrate solution for 30 minutes and the reaction was stopped with 100 μl of 2N H2SO4. […] (For plate optical density calculations, a background correction was taken at 540 nm). The final PGC-1a activation % is average of activation of 6 replicates.
For orientation: ELISA stands for enzyme-linked immunosorbent assay.

The next series has as its system PGC-1α. The series is described as follows: In vivo PGC-1α expression in liver of LPS-treated mice (ELISA). Set-up: species or system C57BL/6 mice. To be noted: for PGC-1α levels: C57BL/6 mice; for PGC-1α level (%): Control = 100. The protocol:
C57BL/6 mice were procured from Vivo Bio Tech Ltd. Male mice were used for the study within an age range of 7 to 8 weeks. Body weight for these mice ranged from 20 g to 25 g. Animals were housed in a group of 6 in individually ventilated cages with temperature of 22±3° C., a relative humidity of 50 to 60%. The bottom of the cages was layered with sterilized corn cob. Animals were provided with gamma irradiated feed and autoclaved drinking water ad-libitum. The IVCs were maintained at an environment controlled (Centrally Air-Conditioned) room at a temperature of 22±3° C., a relative humidity of 50 to 60%, light intensity of 250-300 lux and a 12 hour light-dark cycle and noise intensity of <85 db.
Method of Preparation: LPS was dosed at 3 mg/kg in a dose volume of 10 ml/kg. For this, 0.3 mg/ml of LPS solution (Micronized suspension) was prepared. Butter paper was placed on analytical balance, tarred and LPS was placed on butter paper and its weight was noted down. LPS was transferred to 15 ml falcon tube. Then required amount of normal saline was added to it to make it 0.3 mg/ml. The solution was vortexed properly for 5 minutes and placed on ice. LPS solution was vortexed every time before aspiration and injection.
LPS was dosed at 3 mg/kg. Each test compound was dosed at 10 mg/kg, 2 hour and 15 min post LPS administration.
0.5% CMC was used as a vehicle with a dose volume of 10 ml/kg. An IP route was used for LPS, and a PO route was used for each test compound. Animals were sacrified 24 hours post LPS dosing, and plasma were collected. PGC-1α level was measured in liver samples, and other tissues were stored for future analysis. PGC-1α level was checked using ELISA kit—CUSABIO Mouse PPARGC1A ELISA kit.
Protocol: One day before start of the experiment C57BL/6 Mice (Male, 6-7-week-old) were randomized on the basis of their body weight and were divided into groups. All the cages were assigned the respective group name. Animals inside each cage were marked on the base of the tails with permanent marker to distinguish each animal. Mice were fasted overnight. Next day morning animals were dosed with test item. Group 1 (Control) and Group 2 (LPS) Animals were dosed with vehicle (0.5% CMC). Test items were prepared in 0.5% CMC by trituration in mortar and pestle and addition of CMC drop by drop. 2 hour post test item/vehicle dosing animals were administered with LPS through IP route at 3 mg/kg of body weight. Group 1 (Control) animals were administered with saline. 0.25 hour post LPS administration, animals were again dosed with test item/vehicle. Post dosing, animals were returned to their respective cages and kept until termination of the study. No feed was offered to any group. Animals were provided with water. 24 hour post LPS administration, blood was collected from each animal under influence of mild isoflurane anesthesia through retro-orbital technique. Animals were sacrificed by CO2 asphyxiation technique. Post-termination, animals were dissected and vital organs, liver, brain, skeleton muscle were collected in Eppendorf tubes and flash frozen in liquid nitrogen. Serum was collected from whole blood by centrifuging it at 4° C. at 10,000 RPM and for 10 minutes. (Blood was left for 2 hour for coagulation before centrifugation) After completion of the experiment, all collected samples were stored at −80° C. until analysis.
Assay Methods/Protocol: The mortar was chilled with liquid nitrogen and then the small tissue pieces were grinded in the presence of liquid nitrogen to a fine powder. Immediately after grinding, transferred small amount of tissue powder to a 1.5 ml micro centrifuge tube containing 1.0 ml lysis buffer (RIPA buffer+Protease inhibitor). The samples were then incubated on ice for 2 hours. The samples were vortexed every 15 minutes. The samples were then centrifuged at 13000×g for 15 minutes at 2-8° C. After centrifugation the supernatant was removed carefully and pellet was discarded. […]

Series [2] can be described thus: Pharmacokinetics: quantitative determination of compounds in mice plasma. It is filed as in vivo, C57BL/6 Mice. To be noted: 10 mg/kg PO single dose, vehicle 10% NMP. How it is done:
C57BL/6 Mice, Age 7-9 weeks, body weight range 20-25 g were used. The mice were fasted overnight. Mice were dosed once a day for a single day at 10 mg/kg, 10 mg/kg. 6 time-points were used for whole blood. 10% NMP was used as a vehicle. 9 animals were used per treatment, with three groups of three animals each. Group 1 had time points at 15 and 60 minutes, Group 2 had time points at 30 and 120 minutes, and Group 3 had time points at 90 and 240 minutes. An Oral (PO) route was used. Plasma and brain samples were collected (brain sample collected at terminal time point). Plasma was collected through the centrifugation of whole blood at 10,000 rpm for 10 minutes at 4° C. Samples were stored at −80° C. until processing.
1.00 mg/mL in 100% MeOH PP vials (prepared at RT yellow light) at 2-8° C. were used as stock solution. 12.22-50000 ng/mL using 80% MeOH PP vials (prepared at RT yellow light) at 2-8° C. were used as working solution. 0.98-4000 ng/mL (prepared at RT yellow light) was used for the curve range. For Compounds 26, 40, and 50, 1.00 mg/mL of Compound 53 in 100% methanol Ria vials (Prepared at RT yellow light) was used as IS stock solution, and 80 ng/mL of Compound 53 in 80% methanol (Prepared at RT yellow light) was used as IS working solution. For Compound 36, 1.00 mg/mL of Compound 47 in 100% methanol Ria vials (Prepared at RT yellow light) was used as IS stock solution, and 80 ng/mL of Compound 47 in 80% methanol (Prepared at RT yellow light) was used as IS working solution. A linear, 1/×2 fit type was used. The injection volume was 10 μL for Compounds 26 and 36, and 5 μL for Compounds 40 and 50. Mobile Phase A was 0.1% Formic Acid in water at room temperature. Mobile Phase B was 100% methanol at room temperature. R0 wash solution was 80% methanol at room temperature. R3 wash solution was IPA/MeOH/ACN/water (1:1:1:1) at room temperature. The column was Agilent Eclipse 50*2.1 mm 1.8 μm and the instrument was Shimadzu LC-40 UPLC and AB Sciez 6500+ with LCMS002.
Using a pipette, 25 μL of each sample were aliquoted (calibration curve sample, QC samples and blank matrix) to labeled 1.5 ml eppendorf. Using a pipette, 5.0 μL of IS of conc. 80 ng (Cocktail IS) was aliquoted to each standards and samples except Blank. All tubes were mixed on a multi-tube vortex for approximately 30 seconds. 50 μL of 10 mM Sodium bi-carbonate were added. 1 ml of tert-butyl methyl ether (TBME) was added. All tubes were mixed on a multi-tube vortex for approximately 5 minutes then centrifuged for 10 min at 5,000 rpm for Compounds 26 and 36 and at 10,000 rpm for Compounds 40 and 50, 4° C. The sample was kept in methanol containing dry ice for few seconds to freeze the Aqueous layer (flash freeze method). The upper organic layer was poured from the frozen tubes into the labeled 12×75-mm rial vials and evaporated to dryness under nitrogen using Liquid Evaporator (30° C., ˜15 psi, ˜10 mins). 200 μl of reconstitution solution (0.1% Formic Acid: MeOH (20:80 v/v) were added into each tube. Samples were Vortexed for 30 seconds then transferred to amber glass injection vials for injection.
After test item administration, blood samples were collected from individual animals in previously labeled Heparinised blood collection tubes. Blood samples were collected from retro orbital plexus. The time points for collection of blood samples from all the animals are; 0.25, 0.5, 1, 2 and 4 hr. The collected samples were subjected to centrifugation @ 10,000 rpm for 10 minutes at 40° C. for separation of plasma. Thereafter, plasma samples were collected in previously labeled plasma tubes. These were stored at −80° C. until analysis.

The mark [3] stands for this setting: LPS 3 mg/Kg IP, test compound 10 mg/kg PO BID, liver, 24 hours post LPS.
Where [4] appears, read: LPS 0.25 + 0.5 + 1 mg/kg, test compound 10 mg/kg.

Where “and” joins values, the source holds several entries; their conditions need not be identical. Equal values may be shown once.

Usually AUC(0-inf) stands for the area under the concentration-time curve extrapolated to infinity. Low values mean low exposure, high ones high exposure. What is called AUC(0-t) is exposure summed from dosing to a finite time, without extrapolation to infinity. A high value points to more exposure. One may read the Cmax as the peak of the concentration-time curve. As usually defined, the Tmax is the time from dosing to the highest level.

`NC(=O)c1ncn([C@@H]2O[C@H](CO)[C@@H](O)[C@H]2O)c1N` [AICAR, 5-aminoimidazole-4-carboxamide-1-β-D-ribofuranoside]: the “% Activity (PGC-1α expression)” value in series [1] (1 mM) was 148% and 140% and 130% and 128%.
As for `CN(C)C(=O)[C@H]1CCC2C3CCC4=CC(=O)N(C)CC[C@]4(C)C3[C@@H](O)C[C@@]21C` (stereo partly drawn) [Compound 50, (5aR,6S,7aS)-6-hydroxy-N,N,3,5a,7a-pentamethyl-2-oxo-2,3,4,5,5a,5b,6,7,7a,8,9,10,10a,10b,11,12-hexadecahydrocyclopenta[5,6]naphtho[1,2-d]azepine-8-carboxamide], in the series with PGC-1α (setting [3]), the PGC-1α levels is 38684 pg/mL and 24206 pg/mL; the “PGC-1α level (%)” value is 110% and 80%. Further, in the series with PGC-1α (setting [4]), the PGC-1α level was 2632 pg/mL and the “PGC-1α level (%)” value amounted to 40%. The compound also displayed a T½ in series [2] of 25.4 min. For the same compound, in series [2] (C57BL/6, mouse), the AUC(0-inf) turned out to be 2540 ng·h/mL, the AUC(0-t) came to 2450 ng·h/mL, the Cmax turned out to be 2900 ng/mL and the Tmax amounted to 15 min.
As to `Oc1cc(O)c2c(c1)O[C@H](c1ccc(O)c(O)c1)[C@H](O)C2` [Epicatechin, (+)-Epicatechin, reference compound], in series [1] (0.001 nM), the “% Activity (PGC-1α expression)” value was 129% and 123% and 120% and 122% and 125%. For the same compound, in the series with PGC-1α (setting [3]), the PGC-1α levels was 33330 pg/mL and 31729 pg/mL and 21967 pg/mL; the “PGC-1α level (%)” value is 63% and 90% and 72%. Also, in the series with PGC-1α (setting [4]), the PGC-1α level stood at 3247 pg/mL and the “PGC-1α level (%)” value was found to be 49%.
